Each structure is given as a SMILES string.

Holding throughout (design): scale not given: the % may be the effect or the level left
In assay [1] the target is T1, Mitogen-activated protein kinase kinase kinase kinase 3 (Homo sapiens) (UniProt Q8IVH8).
T1 sequence (whole entry): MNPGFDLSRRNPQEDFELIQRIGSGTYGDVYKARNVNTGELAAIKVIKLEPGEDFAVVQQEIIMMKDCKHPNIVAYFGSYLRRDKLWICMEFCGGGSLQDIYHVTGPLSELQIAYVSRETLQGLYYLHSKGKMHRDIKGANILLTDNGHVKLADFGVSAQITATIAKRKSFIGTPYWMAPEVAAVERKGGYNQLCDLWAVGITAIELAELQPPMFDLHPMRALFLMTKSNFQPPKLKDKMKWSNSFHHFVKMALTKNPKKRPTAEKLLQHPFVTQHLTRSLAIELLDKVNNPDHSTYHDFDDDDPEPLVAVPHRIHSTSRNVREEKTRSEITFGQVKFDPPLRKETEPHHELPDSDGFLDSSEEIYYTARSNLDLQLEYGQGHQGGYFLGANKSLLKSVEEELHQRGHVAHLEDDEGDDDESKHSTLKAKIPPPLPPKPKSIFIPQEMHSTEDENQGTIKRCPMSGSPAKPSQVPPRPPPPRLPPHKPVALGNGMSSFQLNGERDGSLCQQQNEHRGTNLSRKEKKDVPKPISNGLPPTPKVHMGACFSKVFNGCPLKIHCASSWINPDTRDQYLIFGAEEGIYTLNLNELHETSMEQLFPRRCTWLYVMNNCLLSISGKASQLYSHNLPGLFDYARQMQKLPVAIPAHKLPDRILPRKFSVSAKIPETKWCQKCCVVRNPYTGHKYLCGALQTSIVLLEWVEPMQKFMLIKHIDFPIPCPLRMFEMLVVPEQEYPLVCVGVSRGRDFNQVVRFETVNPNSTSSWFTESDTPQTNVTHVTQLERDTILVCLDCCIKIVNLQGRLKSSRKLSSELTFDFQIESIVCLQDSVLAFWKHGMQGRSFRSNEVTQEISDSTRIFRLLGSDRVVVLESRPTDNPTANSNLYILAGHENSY
Put plainly: Inhibition of human GLK/MAP4K3 assessed as enzyme activity at 1 uM using myelin basic protein as substrate preincubated for 20 mins followed by [gamma-33P]-ATP addition and measured after 120 mins by radiometric Hot-SpotSM Kinase assay relative to control.

The target of assay [2] is T2, Serine/threonine-protein kinase STK11 (Homo sapiens) (UniProt Q15831).
T2 sequence (whole entry): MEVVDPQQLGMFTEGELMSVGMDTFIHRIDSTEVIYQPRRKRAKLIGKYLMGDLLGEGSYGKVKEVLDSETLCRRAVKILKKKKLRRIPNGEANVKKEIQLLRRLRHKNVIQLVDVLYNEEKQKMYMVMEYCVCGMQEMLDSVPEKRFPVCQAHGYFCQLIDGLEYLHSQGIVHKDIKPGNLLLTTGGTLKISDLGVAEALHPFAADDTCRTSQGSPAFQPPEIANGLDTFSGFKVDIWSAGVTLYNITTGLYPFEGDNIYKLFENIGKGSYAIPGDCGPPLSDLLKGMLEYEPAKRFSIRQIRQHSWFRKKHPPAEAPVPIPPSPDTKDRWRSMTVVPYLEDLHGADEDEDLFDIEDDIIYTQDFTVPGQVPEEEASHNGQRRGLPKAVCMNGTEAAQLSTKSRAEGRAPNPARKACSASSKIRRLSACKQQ
As to the kind of experiment: Inhibition of human LKB1 assessed as enzyme activity at 1 uM using LSNLYHQGKFLQTFCGSPLYRRR as substrate preincubated for 20 mins followed by [gamma-33P]-ATP addition and measured after 120 mins by radiometric Hot-SpotSM Kinase assay relative to control.

The target of assay [3] is Tyrosine-protein kinase Lck (Homo sapiens) (UniProt P06239). Put plainly: Inhibition of human LCK assessed as enzyme activity at 1 uM using poly[Glu:Tyr] (4:1) as substrate preincubated for 20 mins followed by [gamma-33P]-ATP addition and measured after 120 mins by radiometric Hot-SpotSM Kinase assay relative to control.
Chain of Tyrosine-protein kinase Lck (Homo sapiens) (P06239 2-509 limits assumed): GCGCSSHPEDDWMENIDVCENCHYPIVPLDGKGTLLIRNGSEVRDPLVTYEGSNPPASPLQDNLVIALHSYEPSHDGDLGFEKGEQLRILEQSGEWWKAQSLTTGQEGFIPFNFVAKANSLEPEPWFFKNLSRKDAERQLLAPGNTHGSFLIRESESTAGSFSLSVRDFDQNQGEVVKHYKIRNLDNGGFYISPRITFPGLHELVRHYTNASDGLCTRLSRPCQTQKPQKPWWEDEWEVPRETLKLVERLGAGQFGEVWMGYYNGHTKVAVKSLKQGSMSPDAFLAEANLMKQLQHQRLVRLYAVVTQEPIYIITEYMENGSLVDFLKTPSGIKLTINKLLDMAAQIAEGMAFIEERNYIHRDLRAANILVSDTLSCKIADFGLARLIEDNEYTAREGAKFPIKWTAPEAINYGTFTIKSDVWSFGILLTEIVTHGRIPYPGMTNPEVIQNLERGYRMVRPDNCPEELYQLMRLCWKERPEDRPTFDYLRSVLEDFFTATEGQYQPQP
Assay [4] has as its target Serine/threonine-protein kinase PAK 6 (Homo sapiens) (UniProt Q9NQU5). Put plainly: Inhibition of human PAK6 assessed as enzyme activity at 1 uM using RRRLSFAEPG as substrate preincubated for 20 mins followed by [gamma-33P]-ATP addition and measured after 120 mins by radiometric Hot-SpotSM Kinase assay relative to control.
Assay [5] has as its target MAP kinase-interacting serine/threonine-protein kinase 1 (Homo sapiens) (UniProt Q9BUB5). Put plainly: Inhibition of human MNK1 assessed as enzyme activity at 1 uM using myelin basic protein as substrate preincubated for 20 mins followed by [gamma-33P]-ATP addition and measured after 120 mins by radiometric Hot-SpotSM Kinase assay relative to control.
Assay [6] deals with Vascular endothelial growth factor receptor 3 (Homo sapiens) (UniProt P35916). As to the kind of experiment: Inhibition of human FLT4 assessed as enzyme activity at 1 uM using poly[Glu:Tyr] (4:1) as substrate preincubated for 20 mins followed by [gamma-33P]-ATP addition and measured after 120 mins by radiometric Hot-SpotSM Kinase assay relative to control.
Chain of Vascular endothelial growth factor receptor 3 (Homo sapiens) (P35916 whole entry): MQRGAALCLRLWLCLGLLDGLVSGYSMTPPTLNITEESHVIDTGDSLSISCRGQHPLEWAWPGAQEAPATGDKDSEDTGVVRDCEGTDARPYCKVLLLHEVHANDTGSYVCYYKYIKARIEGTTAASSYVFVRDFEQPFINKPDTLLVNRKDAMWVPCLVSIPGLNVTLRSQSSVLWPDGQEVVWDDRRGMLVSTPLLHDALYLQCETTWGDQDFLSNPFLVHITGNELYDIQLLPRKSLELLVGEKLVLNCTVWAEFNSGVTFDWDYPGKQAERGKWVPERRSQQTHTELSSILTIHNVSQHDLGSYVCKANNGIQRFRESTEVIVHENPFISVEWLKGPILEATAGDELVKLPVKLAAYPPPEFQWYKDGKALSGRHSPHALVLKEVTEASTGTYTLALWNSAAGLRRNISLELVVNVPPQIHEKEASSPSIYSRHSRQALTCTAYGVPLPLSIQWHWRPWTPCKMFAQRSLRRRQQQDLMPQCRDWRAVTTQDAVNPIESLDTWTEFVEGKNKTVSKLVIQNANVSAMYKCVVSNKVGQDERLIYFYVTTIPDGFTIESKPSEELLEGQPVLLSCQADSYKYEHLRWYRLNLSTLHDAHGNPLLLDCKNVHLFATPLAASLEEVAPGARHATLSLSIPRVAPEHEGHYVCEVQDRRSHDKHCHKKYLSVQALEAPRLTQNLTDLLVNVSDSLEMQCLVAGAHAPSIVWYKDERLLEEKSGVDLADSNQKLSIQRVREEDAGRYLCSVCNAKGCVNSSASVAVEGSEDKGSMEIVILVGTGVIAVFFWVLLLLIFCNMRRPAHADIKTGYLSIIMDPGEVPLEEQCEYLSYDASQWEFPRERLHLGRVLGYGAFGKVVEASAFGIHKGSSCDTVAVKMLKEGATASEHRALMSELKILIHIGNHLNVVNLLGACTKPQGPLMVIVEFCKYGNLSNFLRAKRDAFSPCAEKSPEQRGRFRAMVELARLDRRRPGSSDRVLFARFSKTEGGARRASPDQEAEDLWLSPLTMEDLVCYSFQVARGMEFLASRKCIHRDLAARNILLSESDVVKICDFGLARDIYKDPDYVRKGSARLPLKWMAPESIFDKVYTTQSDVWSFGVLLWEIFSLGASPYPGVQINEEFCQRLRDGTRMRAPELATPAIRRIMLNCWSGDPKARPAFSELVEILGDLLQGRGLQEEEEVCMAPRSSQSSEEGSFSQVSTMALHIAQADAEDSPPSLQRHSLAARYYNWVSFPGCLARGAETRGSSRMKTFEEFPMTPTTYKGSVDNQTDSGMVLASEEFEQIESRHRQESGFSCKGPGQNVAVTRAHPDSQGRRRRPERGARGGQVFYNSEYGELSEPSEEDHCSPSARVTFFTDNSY
The target of assay [7] is T3, Serine/threonine-protein kinase ICK (Homo sapiens) (UniProt Q9UPZ9).
T3 sequence (whole entry): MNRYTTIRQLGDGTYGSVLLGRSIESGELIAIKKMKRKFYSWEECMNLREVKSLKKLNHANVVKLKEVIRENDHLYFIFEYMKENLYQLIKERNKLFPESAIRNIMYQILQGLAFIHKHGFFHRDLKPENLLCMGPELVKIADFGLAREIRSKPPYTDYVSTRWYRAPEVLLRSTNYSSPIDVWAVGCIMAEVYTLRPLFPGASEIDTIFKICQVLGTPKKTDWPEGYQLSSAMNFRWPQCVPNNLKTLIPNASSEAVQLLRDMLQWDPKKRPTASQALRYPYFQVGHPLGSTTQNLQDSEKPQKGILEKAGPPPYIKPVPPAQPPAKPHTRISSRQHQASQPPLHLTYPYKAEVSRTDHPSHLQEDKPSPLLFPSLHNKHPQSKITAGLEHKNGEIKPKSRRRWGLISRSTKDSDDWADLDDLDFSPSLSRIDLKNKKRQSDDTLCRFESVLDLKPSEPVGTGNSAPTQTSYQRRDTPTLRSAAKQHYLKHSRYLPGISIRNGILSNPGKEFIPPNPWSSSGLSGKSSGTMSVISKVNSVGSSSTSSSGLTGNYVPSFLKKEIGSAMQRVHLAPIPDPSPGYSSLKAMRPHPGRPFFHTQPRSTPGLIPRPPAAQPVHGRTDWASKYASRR
As to the kind of experiment: Inhibition of human LCK2 assessed as enzyme activity at 1 uM using myelin basic protein as substrate preincubated for 20 mins followed by [gamma-33P]-ATP addition and measured after 120 mins by radiometric Hot-SpotSM Kinase assay relative to control.

The target of assay [8] is Wee1-like protein kinase (Homo sapiens) (UniProt P30291). As to the kind of experiment: Inhibition of human WEE1 assessed as enzyme activity at 1 uM using CDK1 (D146N)/cyclin B1 as substrate preincubated for 20 mins followed by [gamma-33P]-ATP addition and measured after 120 mins by radiometric Hot-SpotSM Kinase assay relative to control.
Chain of Wee1-like protein kinase (Homo sapiens) (P30291 whole entry, looked up): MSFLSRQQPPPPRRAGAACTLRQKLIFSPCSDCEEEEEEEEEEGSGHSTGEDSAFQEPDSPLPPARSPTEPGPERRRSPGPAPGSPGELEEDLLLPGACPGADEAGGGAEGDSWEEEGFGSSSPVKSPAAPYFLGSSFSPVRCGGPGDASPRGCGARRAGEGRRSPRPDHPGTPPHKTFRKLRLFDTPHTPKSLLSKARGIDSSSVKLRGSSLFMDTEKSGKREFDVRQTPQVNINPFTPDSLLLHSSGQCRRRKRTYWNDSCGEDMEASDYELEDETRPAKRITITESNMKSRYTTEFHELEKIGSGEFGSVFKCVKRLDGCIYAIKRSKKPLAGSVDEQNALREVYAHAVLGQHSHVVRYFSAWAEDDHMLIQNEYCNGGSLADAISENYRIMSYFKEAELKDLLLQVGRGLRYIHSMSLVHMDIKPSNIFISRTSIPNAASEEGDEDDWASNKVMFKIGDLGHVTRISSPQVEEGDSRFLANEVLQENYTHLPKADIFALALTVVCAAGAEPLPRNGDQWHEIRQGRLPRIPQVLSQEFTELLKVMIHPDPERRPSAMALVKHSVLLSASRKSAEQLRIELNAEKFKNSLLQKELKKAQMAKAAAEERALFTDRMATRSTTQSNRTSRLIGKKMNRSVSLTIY

Chain of MAP kinase-interacting serine/threonine-protein kinase 1 (Homo sapiens) (Q9BUB5 whole entry, looked up): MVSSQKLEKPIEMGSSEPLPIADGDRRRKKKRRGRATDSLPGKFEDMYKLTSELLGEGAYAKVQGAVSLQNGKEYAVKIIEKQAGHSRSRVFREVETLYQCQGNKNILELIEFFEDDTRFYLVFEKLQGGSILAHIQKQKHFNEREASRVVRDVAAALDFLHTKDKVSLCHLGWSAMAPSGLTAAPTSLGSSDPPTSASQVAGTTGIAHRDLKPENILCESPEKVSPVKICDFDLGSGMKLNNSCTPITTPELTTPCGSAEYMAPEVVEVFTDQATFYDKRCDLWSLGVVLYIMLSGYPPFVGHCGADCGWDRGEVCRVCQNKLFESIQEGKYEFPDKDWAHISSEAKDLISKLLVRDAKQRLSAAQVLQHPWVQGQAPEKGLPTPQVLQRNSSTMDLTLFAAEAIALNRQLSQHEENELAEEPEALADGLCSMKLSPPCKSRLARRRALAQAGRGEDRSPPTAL
Chain of Serine/threonine-protein kinase PAK 6 (Homo sapiens) (Q9NQU5 whole entry, looked up): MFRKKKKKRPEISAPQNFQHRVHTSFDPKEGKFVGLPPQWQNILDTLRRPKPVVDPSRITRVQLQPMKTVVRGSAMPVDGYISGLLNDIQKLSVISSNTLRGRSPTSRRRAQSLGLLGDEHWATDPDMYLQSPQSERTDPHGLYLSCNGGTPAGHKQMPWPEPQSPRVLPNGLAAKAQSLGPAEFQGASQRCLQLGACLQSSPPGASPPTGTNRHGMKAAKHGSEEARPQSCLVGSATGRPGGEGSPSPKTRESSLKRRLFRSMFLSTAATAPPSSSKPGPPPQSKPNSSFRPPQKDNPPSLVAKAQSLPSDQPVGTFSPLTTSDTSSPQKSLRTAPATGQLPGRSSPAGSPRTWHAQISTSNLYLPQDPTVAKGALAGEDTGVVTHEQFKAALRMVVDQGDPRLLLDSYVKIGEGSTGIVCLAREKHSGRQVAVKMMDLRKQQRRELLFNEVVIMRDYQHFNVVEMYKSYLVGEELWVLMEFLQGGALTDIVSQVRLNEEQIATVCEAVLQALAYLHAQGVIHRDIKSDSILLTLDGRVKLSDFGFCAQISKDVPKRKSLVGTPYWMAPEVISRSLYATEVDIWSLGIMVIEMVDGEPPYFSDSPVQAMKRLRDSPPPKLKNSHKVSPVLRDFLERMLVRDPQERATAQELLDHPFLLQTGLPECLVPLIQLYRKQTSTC

Consider `C[C@H](Nc1ncnc2nc[nH]c12)c1cc2cccc(Cl)c2c(=O)n1-c1ccccc1`, for which the Activity in assay [1] is 98.3%; in assay [2], 93%; in assay [3], 94.7%; in assay [4], 99.5%; in assay [5], 93.5%; in assay [6] it was 101%. Also, the Activity was 91.6% in assay [7] and 87.3% in assay [8].

Turning to `CC[C@H](Nc1ncnc2[nH]cnc12)c1nc2cccc(F)c2c(=O)n1-c1ccccc1`, the Activity was found to be 95.2% in assay [1]; 104% in assay [2]; 88.5% in assay [3]; 102% in assay [4]; 96.3% in assay [5]; 98.8% in assay [6]. Also, the Activity in assay [7] is 100%; in assay [8] it was 96.7%.

For the compound `CC(C)Oc1ccc(-c2nn([C@@H](C)c3oc4ccc(F)cc4c(=O)c3-c3cccc(F)c3)c3ncnc(N)c23)cc1F` [UMBRALISIB], the Activity in assay [1] turned out to be 99.3%; in assay [2] it was 100%; in assay [3], 96.8%; in assay [4] it was 97.2%; in assay [5], 92%; in assay [6], 98.8%. Besides, the Activity stood at 101% in assay [7] and 106% in assay [8].

(Values after ChEMBL document CHEMBL5715954, “Silencing c-Myc translation as a therapeutic strategy through targeting PI3Kδ and CK1ε in hematological malignancies” (Blood, 2017).)
